Laboratory results: PubChem BioAssay (NCI)
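How tested: cells in 96-well plates exposed to compound for 48 hours at five concentrations. GI50: concentration for 50% inhibition of growth. At the TGI there is no net growth.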

What was measured:
Assay in all cases: growth of human tumour cells (NCI), 48 h
TK-10 renal = test system: TK-10 renal
HCC-2998 colon = test system: HCC-2998 colon
NCI/ADR-RES ovarian = test system: NCI/ADR-RES ovarian
MALME-3M melanoma = test system: MALME-3M melanoma
NCI-H460 lung = test system: NCI-H460 lung
SF-268 CNS = test system: SF-268 CNS
MDA-MB-231 breast = test system: MDA-MB-231 breast
SK-MEL-28 melanoma = test system: SK-MEL-28 melanoma
CCRF-CEM leukemia = test system: CCRF-CEM leukemia
MCF7 breast = test system: MCF7 breast

Row | SMILES | GI50 (TK-10 renal) [µM] | TGI (TK-10 renal) [µM] | GI50 (HCC-2998 colon) [µM] | TGI (HCC-2998 colon) [µM] | GI50 (NCI/ADR-RES ovarian) [µM] | TGI (NCI/ADR-RES ovarian) [µM] | GI50 (MALME-3M melanoma) [µM] | TGI (MALME-3M melanoma) [µM] | GI50 (NCI-H460 lung) [µM] | TGI (NCI-H460 lung) [µM] | GI50 (SF-268 CNS) [µM] | TGI (SF-268 CNS) [µM] | GI50 (MDA-MB-231 breast) [µM] | TGI (MDA-MB-231 breast) [µM] | GI50 (SK-MEL-28 melanoma) [µM] | TGI (SK-MEL-28 melanoma) [µM] | GI50 (CCRF-CEM leukemia) [µM] | TGI (CCRF-CEM leukemia) [µM] | GI50 (MCF7 breast) [µM] | TGI (MCF7 breast) [µM]
1 | CN1CCN(C)C1c1ccc(C2N(C)CCN2C)cc1 | > 100 | > 100 | 40.5 | > 100 | 90.1 | > 100 | > 100 | > 100 | > 100 | > 100 | 39.8 | > 100 | 18.3 | 96.1 | 67.8 | > 100 | 29.8 | > 100 | 20.1 | > 100
2 | CC(C)[C@@]12C[C@@H](OC(=O)C3CO3)[C@@](C)(O1)[C@@H]1CC[C@@H](C)[C@H]1[C@@H]2OC(=O)/C=C/c1ccccc1 (stereo not given in full) | 29.6 | 65.8 | 18.7 | 35.8 | 10.8 | 37.4 | 13 | 27.4 | 17.2 | 34.2 | 12.1 | 40.2 | 13.3 | 31.2 | 18.4 | 37.9 | 29 | > 100 | 19.8 | 83.3
3 | Nc1nc(-c2cccnc2)cc(-c2cc(-c3cccnc3)nc(N)n2)n1 | – | > 100 | – | > 100 | – | > 100 | – | > 100 | – | > 100 | – | > 100 | – | > 100 | – | > 100 | – | > 100 | – | > 100
4 | COc1cc2c3c(n(CCCN=[N+]=[N-])c(=O)c2cc1OC)-c1ccc(F)cc1C3=O | 73.7 | > 100 | 16.3 | > 100 | 7.44 | > 100 | > 100 | > 100 | 1.87 | 13.3 | 3.8 | > 100 | > 100 | > 100 | 49.2 | > 100 | 1.99 | 5.79 | 3.78 | > 100
5 | COc1ccc(Nc2ncc(I)c(NCCCNC(=O)C3CCC3)n2)cc1 | 0.897 | 9.78 | 13.5 | 67.3 | 12 | > 100 | 7.39 | > 100 | 5.19 | 36.8 | 2.01 | 29.9 | 1.66 | 5.31 | 18 | > 100 | 4.96 | > 100 | 8.31 | > 100
6 | O=c1[nH]c(-c2ccc(Cl)c(Cl)c2)cn1-c1ccc(Cl)cc1 | 16.5 | 32.4 | 25.2 | 87.9 | 27.7 | > 100 | 17 | 39.7 | 22.3 | 52.2 | 21.6 | 59.3 | 15.2 | 46 | 59.6 | > 100 | 40.3 | > 100 | 56.3 | > 100
7 | Oc1ccc(N=Nc2ccc(Br)cc2)c(O)c1 | 4.95 | 24.8 | 3.55 | 12 | 3.07 | 9.29 | 3.61 | 20.7 | 3.29 | 21.5 | 5.84 | > 100 | 3.47 | 16.6 | 7.97 | > 100 | 1.91 | 4.82 | 2.2 | 54.3
8 | COc1cc2c(cc1OC)[C@@H]1C(=O)c3ccc4c(c3O[C@@H]1CO2)C[C@H](C(C)C)O4 | 5.37 | > 49 | 4.09 | > 61.6 | 0.248 | > 29.1 | 5.56 | 53.2 | 4.33 | 45.8 | 11.7 | > 62.2 | 21.6 | > 100 | 15.4 | > 58.2 | 5.41 | > 100 | 2.66 | > 52.2
9 | CCn1nc(C2CCN(C(=O)CCO)CC2)nc1-c1cnc(N)c(-c2nnc(C(C)(C)C)o2)n1 | 1.95 | > 100 | 10.7 | > 100 | 14.6 | > 100 | 3.77 | > 100 | 3.9 | > 100 | 23.1 | > 100 | 15.1 | 68.2 | 4.78 | > 100 | 18.2 | > 100 | 0.375 | > 100
10 | COc1ccc(Sc2[nH]c(C=O)c3ccccc23)cc1 | 10.6 | 45.1 | 5.44 | 18.2 | 11.6 | 47.5 | 14.2 | 38.8 | 2.94 | 11.2 | 14.9 | 31.2 | 13.4 | 34.2 | 15.1 | 30 | 5.66 | 22.3 | 12.8 | 30.2
